Molecules are shown by their SMILES. Calls of active or inactive are those of the source.

Results on 5 compounds are retold here after ChEMBL document CHEMBL1201862, “PubChem BioAssay data set” (2004).

The target of one experiment is Large T antigen (Simian virus 40, UniProt P03070). The experiment is classed as functional, Betapolyomavirus macacae.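 Also: Confirmatory-stage PubChem screen for compounds that inhibit SV40 T antigen.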
Experiment [1] concerns the target Intestinal-type alkaline phosphatase (Homo sapiens, UniProt P09923). Put plainly: activation of human intestinal alkaline phosphatase – biochemical, dose response (AID 488873). The format is functional.
For experiment [2], the target named is FAD-linked sulfhydryl oxidase ALR (Homo sapiens, UniProt P55789). Put plainly: ALR-catalysed DTT oxidation blockers – biochemical, H2O2 detection, luminescence, cherry-pick, dose response (AID 493248).
The target of experiment [3] is Intestinal-type alkaline phosphatase (Mus musculus, UniProt P24822). Put plainly: mouse intestinal alkaline phosphatase activators, dose response, biochemical, luminescence, uHTS hits (AID 488783). The format is functional.
Experiment [4] addresses T1, Alkaline phosphatase, tissue-nonspecific isozyme (Homo sapiens, UniProt P05186).
T1 sequence (P05186 whole entry): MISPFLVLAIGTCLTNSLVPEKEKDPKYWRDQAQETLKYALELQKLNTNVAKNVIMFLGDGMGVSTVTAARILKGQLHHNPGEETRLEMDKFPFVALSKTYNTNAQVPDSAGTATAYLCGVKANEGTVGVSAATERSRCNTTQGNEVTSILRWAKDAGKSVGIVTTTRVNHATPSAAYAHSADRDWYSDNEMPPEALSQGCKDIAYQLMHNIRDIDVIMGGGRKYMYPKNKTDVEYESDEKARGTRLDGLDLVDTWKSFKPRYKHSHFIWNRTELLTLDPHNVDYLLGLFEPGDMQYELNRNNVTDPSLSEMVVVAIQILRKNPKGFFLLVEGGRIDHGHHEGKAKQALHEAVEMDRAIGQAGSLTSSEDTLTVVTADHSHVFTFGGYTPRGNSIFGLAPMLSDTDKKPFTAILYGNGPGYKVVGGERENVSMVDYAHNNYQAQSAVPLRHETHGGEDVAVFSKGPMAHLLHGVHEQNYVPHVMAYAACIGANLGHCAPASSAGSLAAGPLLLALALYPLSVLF
Put plainly: activation of tissue-nonspecific alkaline phosphatase – biochemical, TNAP isozyme, mouse IAP uHTS hits, selectivity assay for mouse IAP activator project, dose response (AID 488880). The format is functional.

Experiment [5] concerns the target Benomyl/methotrexate resistance protein (Candida albicans, UniProt P28873). Put plainly: Candida albicans Mdr1 pump inhibition curves – singleplex, Cherry Pick1 hits, dose response (AID 588608). The experiment is classed as functional.
Experiment [6] deals with Multidrug resistance protein CDR2 (Candida albicans (strain SC5314 / ATCC MYA-2876) (Yeast), UniProt P78595). Put plainly: inhibition of Nile Red efflux via Candida CDR2 – S. cerevisiae AD1-8u, singleplex, Cherry Pick1 hits, dose response (AID 588604). The experiment is classed as functional.
Experiment [7] deals with 26S proteasome non-ATPase regulatory subunit 14 (Homo sapiens, UniProt O00487). Put plainly: inhibition of proteasome subunit RPN11 – biochemical, fluorescence polarization, uHTS hits, confirmation (AID 602368). The format is functional.
In experiment [8] the target is 72 kDa type IV collagenase (Homo sapiens, UniProt P08253). Put plainly: Dose Response validation of uHTS RPN11 inhibitor hits using a MMP-2 Fluorescence assay. The format is functional.
The next experiment has as its target Prothrombin (Bos taurus, UniProt P00735). Put plainly: thrombin protease inhibitors – biochemical, fluorescence polarization, uHTS hits, dose response (AID 602369). The experiment is classed as functional. Background: In fluorescence polarisation assays a small probe gives low polarisation when free and higher when bound to something large.
Experiment [9] concerns the target T2, Histone-lysine N-methyltransferase NSD2 (Homo sapiens, UniProt O96028).
T2 sequence (O96028 whole entry): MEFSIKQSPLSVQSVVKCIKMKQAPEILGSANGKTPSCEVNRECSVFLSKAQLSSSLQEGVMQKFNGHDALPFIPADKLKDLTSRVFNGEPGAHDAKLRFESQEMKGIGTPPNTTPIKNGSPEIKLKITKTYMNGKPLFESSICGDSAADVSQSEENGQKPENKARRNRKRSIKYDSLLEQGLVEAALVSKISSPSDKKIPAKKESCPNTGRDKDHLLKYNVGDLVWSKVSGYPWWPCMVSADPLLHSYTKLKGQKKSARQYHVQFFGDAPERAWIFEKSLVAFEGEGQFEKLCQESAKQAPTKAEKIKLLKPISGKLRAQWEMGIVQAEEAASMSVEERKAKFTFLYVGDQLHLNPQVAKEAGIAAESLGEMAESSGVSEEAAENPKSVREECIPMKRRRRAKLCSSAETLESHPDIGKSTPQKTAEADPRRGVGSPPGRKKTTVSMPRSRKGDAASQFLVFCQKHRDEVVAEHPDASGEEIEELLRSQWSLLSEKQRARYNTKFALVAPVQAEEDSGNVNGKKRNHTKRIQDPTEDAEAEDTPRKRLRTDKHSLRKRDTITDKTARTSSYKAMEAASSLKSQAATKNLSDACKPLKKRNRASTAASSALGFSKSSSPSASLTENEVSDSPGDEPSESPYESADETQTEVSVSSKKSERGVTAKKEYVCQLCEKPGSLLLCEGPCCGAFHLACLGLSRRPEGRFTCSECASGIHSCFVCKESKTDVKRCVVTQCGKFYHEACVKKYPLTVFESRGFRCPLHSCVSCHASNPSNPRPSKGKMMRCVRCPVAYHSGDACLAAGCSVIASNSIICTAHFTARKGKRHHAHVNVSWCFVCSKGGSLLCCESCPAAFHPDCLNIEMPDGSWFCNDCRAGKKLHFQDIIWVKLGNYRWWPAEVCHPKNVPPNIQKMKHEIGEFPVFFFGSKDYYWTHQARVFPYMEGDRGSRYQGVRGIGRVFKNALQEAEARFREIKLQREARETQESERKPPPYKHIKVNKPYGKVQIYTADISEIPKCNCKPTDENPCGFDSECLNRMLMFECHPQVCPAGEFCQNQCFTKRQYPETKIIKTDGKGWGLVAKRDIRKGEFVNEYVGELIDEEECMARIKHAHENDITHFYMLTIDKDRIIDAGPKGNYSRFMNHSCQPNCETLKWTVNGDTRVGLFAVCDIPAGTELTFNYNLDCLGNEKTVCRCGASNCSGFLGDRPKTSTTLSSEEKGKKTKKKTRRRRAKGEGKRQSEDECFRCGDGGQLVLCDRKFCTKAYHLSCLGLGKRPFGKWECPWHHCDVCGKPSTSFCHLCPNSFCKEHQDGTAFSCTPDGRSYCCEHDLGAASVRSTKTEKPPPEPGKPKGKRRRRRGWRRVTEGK
The experiment is classed as biochemical.

The target in experiment [10] is Melanin-concentrating hormone receptor 1 (Homo sapiens, UniProt Q99705). Put plainly: Late-stage fluorescence-based counterscreen for antagonists of the G-protein coupled receptor 7 (GPR7): cell-based dose response assay to identify antagonists of the melanin-concentrating hormone receptor 1 (MCHR1) Set 6. The experiment is classed as functional.
In experiment [11] the target is Neuropeptides B/W receptor type 1 (Homo sapiens, UniProt P48145). Put plainly: human NPBW1 receptor blockade, IC50 – cell-based, fluorescence, dose response, set 6, late-stage follow-up (AID 588583). The format is functional.
The nature of experiment [12]: THP-1 cell cytotoxicity, cytotoxicity control, set 5 (AID 588443). The format is functional.
For experiment [13], the target named is Cyclin-dependent kinase 2 (Homo sapiens, UniProt P24941). The format is functional.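 Also: CDK2 measured as one member of a broad kinome profiling panel.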
Experiment [14] has as its target Serine/threonine-protein kinase pim-1 (Homo sapiens, UniProt P11309). The format is functional.
In experiment [15] the target is Cell division cycle 7-related protein kinase (Homo sapiens, UniProt O00311). The format is functional.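 Also: value obtained from a kinome-wide kinase panel.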
Experiment [16] deals with Homeodomain-interacting protein kinase 2 (Homo sapiens, UniProt Q9H2X6). The format is functional.
Experiment [17] addresses Interleukin-1 receptor-associated kinase 4 (Homo sapiens, UniProt Q9NWZ3). The format is functional.
The target of experiment [18] is Glycogen synthase kinase-3 beta (Homo sapiens, UniProt P49841). The format is functional.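 Also: value comes from a broad kinome profiling panel, with GSK3B as the panel member.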
For experiment [19], the target named is cAMP-dependent protein kinase catalytic subunit alpha (Homo sapiens, UniProt P17612). The format is functional.
Experiment [20] concerns the target Dual specificity protein kinase CLK4 (Homo sapiens, UniProt Q9HAZ1). The format is functional.
Experiment [21] concerns the target Mitogen-activated protein kinase kinase kinase kinase 4 (Homo sapiens, UniProt O95819). The experiment is classed as functional.
The target in experiment [22] is Ribosomal protein S6 kinase alpha-3 (Homo sapiens, UniProt P51812). The experiment is classed as functional.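 Also: measured within a kinome-wide profiling panel.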
The target in experiment [23] is Protein kinase C zeta type (Homo sapiens, UniProt Q05513). The format is functional.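 Also: measured as one member of a broad kinase profiling panel.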
The target of experiment [24] is Serine/threonine-protein kinase PLK3 (Homo sapiens, UniProt Q9H4B4). The format is functional.
The target of experiment [25] is RAC-gamma serine/threonine-protein kinase (Homo sapiens, UniProt Q9Y243). The format is functional.
Experiment [26] deals with 5'-AMP-activated protein kinase catalytic subunit alpha-1 (Homo sapiens, UniProt Q13131). The format is functional.
Experiment [27] addresses Protein kinase C delta type (Homo sapiens, UniProt Q05655). The format is functional.
Experiment [28] deals with Ribosomal protein S6 kinase beta-1 (Homo sapiens, UniProt P23443). The format is functional.
Experiment [29] deals with Serine/threonine-protein kinase Chk2 (Homo sapiens, UniProt O96017). The experiment is classed as functional.
The target in the next experiment is Aurora kinase A (Homo sapiens, UniProt O14965). The experiment is classed as functional.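 Also: value from the Navigating the Kinome kinase panel profiling, panel entry STK6.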
The target of experiment [30] is MAP kinase-activated protein kinase 2 (Homo sapiens, UniProt P49137). The experiment is classed as functional.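 Also: measured as one member of a kinome-wide kinase panel.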
The target of experiment [31] is Casein kinase II subunit alpha (Homo sapiens, UniProt P68400). The experiment is classed as functional.
Experiment [32] has as its target Serine/threonine-protein kinase PAK 4 (Homo sapiens, UniProt O96013). The format is functional.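 Also: value obtained within a kinome profiling panel in which PAK4 was one of the panel members.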
Experiment [33] deals with Fibroblast growth factor receptor 1 (Homo sapiens, UniProt P11362). The experiment is classed as functional.
Experiment [34] addresses MAP/microtubule affinity-regulating kinase 3 (Homo sapiens, UniProt P27448). The experiment is classed as functional.
Experiment [35] deals with Protein kinase C gamma type (Homo sapiens, UniProt P05129). The format is functional.
Experiment [36] deals with Serine/threonine-protein kinase Chk1 (Homo sapiens, UniProt O14757). The experiment is classed as functional.
For the next experiment, the target named is Ephrin type-A receptor 2 (Homo sapiens, UniProt P29317). The experiment is classed as functional.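 Also: EPHA2 tested as one member of a kinome-wide kinase panel.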
Experiment [37] addresses RAC-alpha serine/threonine-protein kinase (Homo sapiens, UniProt P31749). The format is functional.
For experiment [38], the target named is Cyclin-dependent kinase 1 (Homo sapiens, UniProt P06493). The format is functional.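 Also: Kinome-wide panel profiling, with the target listed as panel member CDC2.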
For experiment [39], the target named is Serine/threonine-protein kinase PLK1 (Homo sapiens, UniProt P53350). The format is functional.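 Also: PLK1 measured as one member of a kinome-wide profiling panel.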
Experiment [40] deals with Serine/threonine-protein kinase MRCK alpha (Homo sapiens, UniProt Q5VT25). The format is functional.

Glycogen synthase kinase-3 beta, sequence (P49841 whole entry): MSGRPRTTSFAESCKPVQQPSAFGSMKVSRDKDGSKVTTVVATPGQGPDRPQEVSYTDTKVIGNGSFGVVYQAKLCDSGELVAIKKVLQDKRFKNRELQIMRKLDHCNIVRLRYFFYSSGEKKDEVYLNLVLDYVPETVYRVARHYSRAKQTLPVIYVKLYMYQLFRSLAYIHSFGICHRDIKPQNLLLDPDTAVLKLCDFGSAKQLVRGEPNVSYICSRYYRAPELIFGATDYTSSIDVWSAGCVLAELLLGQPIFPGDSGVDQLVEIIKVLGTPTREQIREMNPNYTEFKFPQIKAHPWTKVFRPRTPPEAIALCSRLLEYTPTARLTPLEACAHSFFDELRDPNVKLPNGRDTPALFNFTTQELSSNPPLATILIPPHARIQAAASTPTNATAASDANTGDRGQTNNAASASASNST
Serine/threonine-protein kinase pim-1, sequence (P11309 whole entry): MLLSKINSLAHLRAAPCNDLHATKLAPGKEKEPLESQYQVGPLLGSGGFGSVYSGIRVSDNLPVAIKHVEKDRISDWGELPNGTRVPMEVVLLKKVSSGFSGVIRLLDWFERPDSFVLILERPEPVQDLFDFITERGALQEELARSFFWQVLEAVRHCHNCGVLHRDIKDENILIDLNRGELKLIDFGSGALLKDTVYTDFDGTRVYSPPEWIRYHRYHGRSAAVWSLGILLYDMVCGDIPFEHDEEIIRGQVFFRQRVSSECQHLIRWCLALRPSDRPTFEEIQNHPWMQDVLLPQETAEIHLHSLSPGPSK
RAC-gamma serine/threonine-protein kinase, sequence (Q9Y243 whole entry): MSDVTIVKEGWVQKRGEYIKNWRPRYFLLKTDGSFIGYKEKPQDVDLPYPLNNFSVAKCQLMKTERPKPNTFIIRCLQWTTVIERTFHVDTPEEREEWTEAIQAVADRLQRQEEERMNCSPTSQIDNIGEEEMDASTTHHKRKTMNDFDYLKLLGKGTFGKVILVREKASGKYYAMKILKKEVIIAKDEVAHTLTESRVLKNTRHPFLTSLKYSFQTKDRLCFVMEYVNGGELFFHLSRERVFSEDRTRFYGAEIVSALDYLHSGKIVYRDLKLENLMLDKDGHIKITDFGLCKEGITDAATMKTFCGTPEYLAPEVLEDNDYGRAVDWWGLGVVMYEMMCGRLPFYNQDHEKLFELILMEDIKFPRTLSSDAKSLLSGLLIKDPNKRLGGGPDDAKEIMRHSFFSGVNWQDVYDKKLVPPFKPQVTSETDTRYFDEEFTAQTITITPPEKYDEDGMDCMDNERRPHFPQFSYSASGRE
Homeodomain-interacting protein kinase 2, sequence (Q9H2X6 whole entry): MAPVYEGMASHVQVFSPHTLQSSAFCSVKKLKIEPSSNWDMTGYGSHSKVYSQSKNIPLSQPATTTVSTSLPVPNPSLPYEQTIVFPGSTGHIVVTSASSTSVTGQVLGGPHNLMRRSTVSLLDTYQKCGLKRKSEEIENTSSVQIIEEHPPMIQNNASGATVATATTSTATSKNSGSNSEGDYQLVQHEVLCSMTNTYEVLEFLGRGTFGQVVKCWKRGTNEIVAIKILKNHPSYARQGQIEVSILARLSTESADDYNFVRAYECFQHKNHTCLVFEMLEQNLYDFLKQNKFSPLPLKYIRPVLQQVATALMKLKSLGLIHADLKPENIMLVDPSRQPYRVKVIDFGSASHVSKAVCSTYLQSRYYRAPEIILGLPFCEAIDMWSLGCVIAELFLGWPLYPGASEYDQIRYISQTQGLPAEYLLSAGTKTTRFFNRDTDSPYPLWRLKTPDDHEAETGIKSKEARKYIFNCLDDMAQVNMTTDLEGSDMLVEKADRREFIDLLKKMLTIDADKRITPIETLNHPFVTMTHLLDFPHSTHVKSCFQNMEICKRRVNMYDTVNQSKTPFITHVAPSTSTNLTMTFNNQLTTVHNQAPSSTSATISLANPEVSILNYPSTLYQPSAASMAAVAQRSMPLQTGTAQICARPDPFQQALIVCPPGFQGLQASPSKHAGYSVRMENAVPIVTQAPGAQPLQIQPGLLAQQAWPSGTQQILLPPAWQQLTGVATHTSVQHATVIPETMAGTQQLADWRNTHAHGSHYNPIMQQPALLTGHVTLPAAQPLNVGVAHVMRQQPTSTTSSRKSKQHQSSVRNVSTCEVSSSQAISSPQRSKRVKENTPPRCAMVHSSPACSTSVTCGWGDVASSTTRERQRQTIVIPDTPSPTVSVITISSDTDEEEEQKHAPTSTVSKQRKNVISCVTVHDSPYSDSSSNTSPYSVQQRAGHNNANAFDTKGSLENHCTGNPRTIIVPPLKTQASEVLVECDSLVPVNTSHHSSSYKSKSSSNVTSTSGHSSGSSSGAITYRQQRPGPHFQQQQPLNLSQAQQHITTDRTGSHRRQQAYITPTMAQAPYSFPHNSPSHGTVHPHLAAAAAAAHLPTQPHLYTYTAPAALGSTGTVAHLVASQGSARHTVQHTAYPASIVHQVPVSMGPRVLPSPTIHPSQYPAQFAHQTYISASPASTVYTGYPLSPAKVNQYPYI
Serine/threonine-protein kinase PLK3, sequence (Q9H4B4 whole entry): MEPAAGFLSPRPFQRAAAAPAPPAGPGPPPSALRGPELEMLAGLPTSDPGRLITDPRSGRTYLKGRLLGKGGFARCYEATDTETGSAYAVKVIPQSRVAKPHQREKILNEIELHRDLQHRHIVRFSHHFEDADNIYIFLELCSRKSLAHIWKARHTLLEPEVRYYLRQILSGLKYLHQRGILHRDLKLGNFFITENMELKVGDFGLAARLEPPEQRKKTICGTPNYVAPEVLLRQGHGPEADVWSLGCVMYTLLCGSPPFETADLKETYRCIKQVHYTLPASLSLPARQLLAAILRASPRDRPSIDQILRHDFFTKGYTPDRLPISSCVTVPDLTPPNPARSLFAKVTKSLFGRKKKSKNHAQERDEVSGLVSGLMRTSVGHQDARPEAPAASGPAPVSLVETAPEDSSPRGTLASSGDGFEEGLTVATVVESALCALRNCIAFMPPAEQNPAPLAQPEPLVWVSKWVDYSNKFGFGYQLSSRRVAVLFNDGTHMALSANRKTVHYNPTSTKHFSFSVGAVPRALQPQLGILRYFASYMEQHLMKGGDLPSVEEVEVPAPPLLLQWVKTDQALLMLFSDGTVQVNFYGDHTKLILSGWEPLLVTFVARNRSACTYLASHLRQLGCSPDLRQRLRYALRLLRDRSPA
Large T antigen, sequence (P03070 whole entry): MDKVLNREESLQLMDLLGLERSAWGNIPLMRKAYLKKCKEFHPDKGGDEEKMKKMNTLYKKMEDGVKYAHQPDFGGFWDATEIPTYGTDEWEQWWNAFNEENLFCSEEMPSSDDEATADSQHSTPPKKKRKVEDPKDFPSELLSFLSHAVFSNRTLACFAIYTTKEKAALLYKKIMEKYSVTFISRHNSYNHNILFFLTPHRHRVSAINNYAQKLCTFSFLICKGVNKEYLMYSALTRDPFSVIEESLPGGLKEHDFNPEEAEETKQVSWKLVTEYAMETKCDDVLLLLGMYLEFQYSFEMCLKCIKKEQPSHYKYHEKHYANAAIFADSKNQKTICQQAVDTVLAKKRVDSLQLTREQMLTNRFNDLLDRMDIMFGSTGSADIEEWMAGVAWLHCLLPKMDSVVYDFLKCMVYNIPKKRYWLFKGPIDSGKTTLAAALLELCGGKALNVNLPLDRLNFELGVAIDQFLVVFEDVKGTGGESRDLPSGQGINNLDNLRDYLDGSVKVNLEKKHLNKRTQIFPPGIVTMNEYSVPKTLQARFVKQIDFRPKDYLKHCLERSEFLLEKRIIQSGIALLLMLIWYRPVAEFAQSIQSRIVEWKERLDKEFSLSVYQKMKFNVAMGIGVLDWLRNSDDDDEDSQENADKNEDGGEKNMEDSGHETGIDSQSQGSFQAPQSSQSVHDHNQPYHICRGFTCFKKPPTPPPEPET
Serine/threonine-protein kinase PLK1, sequence (P53350 whole entry): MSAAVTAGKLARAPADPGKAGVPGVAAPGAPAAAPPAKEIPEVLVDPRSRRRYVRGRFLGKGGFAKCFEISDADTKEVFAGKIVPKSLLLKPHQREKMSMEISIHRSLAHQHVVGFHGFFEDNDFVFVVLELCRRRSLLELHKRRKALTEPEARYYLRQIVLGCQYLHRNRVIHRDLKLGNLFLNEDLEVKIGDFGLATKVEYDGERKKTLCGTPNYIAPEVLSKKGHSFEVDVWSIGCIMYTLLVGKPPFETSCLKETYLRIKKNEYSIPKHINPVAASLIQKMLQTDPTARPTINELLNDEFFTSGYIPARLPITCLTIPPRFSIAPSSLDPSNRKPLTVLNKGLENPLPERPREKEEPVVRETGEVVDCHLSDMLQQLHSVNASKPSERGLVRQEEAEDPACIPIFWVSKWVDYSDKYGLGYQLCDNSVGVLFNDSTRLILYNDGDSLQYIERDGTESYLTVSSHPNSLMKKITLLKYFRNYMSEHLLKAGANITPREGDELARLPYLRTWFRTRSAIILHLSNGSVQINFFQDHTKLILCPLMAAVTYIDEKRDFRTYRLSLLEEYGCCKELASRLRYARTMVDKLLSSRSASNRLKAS
Ribosomal protein S6 kinase beta-1, sequence (P23443 whole entry): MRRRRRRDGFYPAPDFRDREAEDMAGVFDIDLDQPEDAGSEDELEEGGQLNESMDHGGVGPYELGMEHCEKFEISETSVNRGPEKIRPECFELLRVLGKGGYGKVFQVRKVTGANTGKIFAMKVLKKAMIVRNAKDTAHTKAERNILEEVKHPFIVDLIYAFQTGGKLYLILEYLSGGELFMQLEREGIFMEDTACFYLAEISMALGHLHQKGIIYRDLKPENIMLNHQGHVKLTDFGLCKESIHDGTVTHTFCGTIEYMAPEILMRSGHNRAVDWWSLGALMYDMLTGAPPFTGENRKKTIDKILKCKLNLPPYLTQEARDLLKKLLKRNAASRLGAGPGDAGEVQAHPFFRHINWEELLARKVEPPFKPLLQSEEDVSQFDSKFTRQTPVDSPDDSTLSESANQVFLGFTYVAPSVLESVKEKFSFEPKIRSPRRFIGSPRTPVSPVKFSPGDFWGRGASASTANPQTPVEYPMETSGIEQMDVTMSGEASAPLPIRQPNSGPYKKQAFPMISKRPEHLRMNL

Take `O=C(O)C(c1ccccc1)N1C(=O)/C(=C\c2ccc(O)c(O)c2)SC1=S` (stereo not drawn): the IC50 at Large T antigen is 7.85 µM (active); in experiment [7] it was 26.3 µM (active); in experiment [8], 39.7 µM (active); at Prothrombin, 30.7 µM (active). Moreover, the EC50 in experiment [1] was 59.1 µM (active); in [3], 61 µM (active); in experiment [4] it was 24.1 µM (active); in experiment [5], 2.72 µM (active); in experiment [6], 4.78 µM (active). In addition, the values for the AC50 in experiment [2] and in experiment [9] were 0.208 µM (active) and 4.05 µM (active), respectively.
As for `CCOc1ccc(C(C#N)c2c(Cl)cnn(Cc3cccc4ccccc34)c2=O)c(F)c1F` (stereo not drawn), the concentration for half-maximal inhibition (IC50) in experiment [10] and in experiment [11] was 0.601 µM (active) in each case.
On to `CC1CC(C)CN(C(=O)C2CCC(CNc3c(N4CCCCC4)c(=O)c3=O)CC2)C1` (stereo not drawn), for which the CC50 in experiment [12] is > 30 µM (inconclusive).
In the case of `O=c1cc(-c2cccc(F)c2)[nH]c2c(-c3ccc(F)cc3)cnn12`, the Ki is > 7.94 µM (inactive) in [13]; 0.126 µM (active) in experiment [14]; 0.0631 µM (active) in experiment [15]; 0.501 µM (active) in [16]; > 10 µM (inactive) in experiment [17]; 2 µM (active) in [18]. In addition, the Ki in experiment [19] is > 7.94 µM (inactive); in experiment [20], 0.158 µM (active); in [21], > 10 µM (inactive).
Take `O=C1NC(=O)C(Nc2ccccc2)=C1Cl`: the Ki was > 20 µM (inactive) in [22]; > 20 µM (inactive) in experiment [23]; > 20 µM (inactive) in experiment [24]; > 25.1 µM (inactive) in experiment [25]; > 25.1 µM (inactive) in experiment [26]; > 20 µM (inactive) in experiment [27]. In addition, the Ki in [28] is > 15.8 µM (inactive); in experiment [29], > 25.1 µM (inactive); in experiment [13], > 20 µM (inactive); in experiment [14] it was 15.8 µM (active); at Aurora kinase A it was 15.8 µM (active); in [30] it was > 20 µM (inactive). For the same compound, the Ki in experiment [31] is > 15.8 µM (inactive); in experiment [32], > 12.6 µM (inactive); in [33], > 12.6 µM (inactive); in [34], > 15.8 µM (inactive); in [35] it was > 20 µM (inactive); in [36], 12.6 µM (active). Further, the Ki at Ephrin type-A receptor 2 was > 20 µM (inactive); in experiment [37], > 20 µM (inactive); in experiment [38] it was > 20 µM (inactive); in experiment [39], > 20 µM (inactive); in experiment [18], 1 µM (active); in [19], > 20 µM (inactive). Moreover, in [40], the Ki is > 25.1 µM (inactive).

As a reminder, the IC50 is the point on the concentration scale where inhibition reaches its midpoint. In general, EC50 refers to the concentration that produces a half-maximal response. By AC50 is commonly meant the midpoint of the concentration-response curve, whichever way the signal moves. In general, CC50 refers to the concentration that lowers cell viability or growth by half. Usually Ki stands for the equilibrium dissociation constant of an inhibitor or competing ligand from its target.
